Paper PMC8410435, “Evaluation of Neuraminidase Inhibitory Activity of Compounds and Extracts from Traditional Medicines by HPLC-FLD” (International Journal of Analytical Chemistry, 2021)
Where two headings read alike, the source gives them in different places.

How the values were obtained:
[1] = biological target: T1, neuraminidase (NA), from Sigma-Aldrich; format: biochemical
T1 construct: gene nanH

[2] = biological target: T1, neuraminidase (NA), from Sigma-Aldrich; format: biochemical; conditions: read-out: HPLC-FLD

SMILES | IC50 ([1]; read-out: HPLC-FLD) | also measured
COC(=O)C1=CO[C@@H](O[C@@H]2O[C@H](CO)[C@@H](O)[C@H](O)[C@H]2O)[C@@H]2C(CO)=CC[C@H]12 [compound 1, Geniposide] | 970 ± 90 µM | –
COC(=O)C1=CO[C@@H](O[C@@H]2O[C@H](CO)[C@@H](O)[C@H](O)[C@H]2O)[C@H]2[C@@H]1[C@H](O)C[C@]2(C)O [compound 2, Shanzhiside methyl ester] | – | IC50 ([1]; read-out: NA enzyme-based inhibitory assays): 10 µM
O=C(/C=C/c1ccc(O)c(O)c1)O[C@@H]1C[C@](O)(C(=O)O)C[C@@H](O)[C@H]1O [compound 3, Chlorogenic acid] | 2560 ± 60 µM | –
O=C(/C=C/c1ccc(O)c(O)c1)O[C@H]1[C@H](O)C[C@](O)(C(=O)O)C[C@H]1O [compound 4, Cryptochlorogenin acid] | 2200 ± 10 µM | –
O=C(/C=C/c1ccc(O)c(O)c1)O[C@@H]1[C@H](O)C[C@@](O)(C(=O)O)C[C@H]1OC(=O)/C=C/c1ccc(O)c(O)c1 [compound 6, Isochlorogenic acid C] | 1170 ± 50 µM | –
O=C(O)[C@H]1O[C@@H](Oc2cc3oc(-c4ccccc4)cc(=O)c3c(O)c2O)[C@H](O)[C@@H](O)[C@@H]1O [compound 7, Baicalin] | 500 ± 40 µM | –
O=c1cc(-c2ccccc2)oc2cc(O)c(O)c(O)c12 [compound 8, Baicalein] | 110 ± 10 µM | –
CC(C)=CCOc1c2ccoc2cc2oc(=O)ccc12 [compound 9, Isoimpemtorin] | 660 ± 160 µM | –
O=c1ccc2cc3ccoc3cc2o1 [compound 10, Psoralen] | 1000 ± 630 µM | –
O=c1ccc2ccc3occc3c2o1 [compound 11, Angelicin] | – | IC50 [2]: 2550 ± 380 µM
O=c1ccc2cc3ccoc3c(O)c2o1 [compound 12, Xanthotol] | 1050 ± 70 µM | –
COc1c2ccoc2cc2oc(=O)ccc12 [compound 13, Bergapten] | 2800 ± 160 µM | –
COc1ccc2ccc(=O)oc2c1CC=C(C)C [compound 14, Osthole] | 2140 ± 150 µM | –
